Holding throughout (test): SPR loading efficiency, L363 Fab on immobilised loaded CD1d
Common to all, as to format: binding

The target in assay [1] is T1, mCD1d (birA-tag mCD1d/β2m) (Mus musculus, UniProt P11609).
T1 construct: gene Cd1d1; soluble glycosylated CD1d/β2m heterodimer, birA tag, biotinylated; with Beta-2-microglobulin
T1 sequence (P11609 19-297): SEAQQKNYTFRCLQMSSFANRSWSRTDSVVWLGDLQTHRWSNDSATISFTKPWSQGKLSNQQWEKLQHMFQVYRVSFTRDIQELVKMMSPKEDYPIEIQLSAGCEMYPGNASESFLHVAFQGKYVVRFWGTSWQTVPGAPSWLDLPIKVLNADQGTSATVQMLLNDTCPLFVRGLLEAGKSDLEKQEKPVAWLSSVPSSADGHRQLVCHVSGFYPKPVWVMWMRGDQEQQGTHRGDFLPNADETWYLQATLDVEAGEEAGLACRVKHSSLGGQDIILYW
T1 sequence (P01887 21-119 partner): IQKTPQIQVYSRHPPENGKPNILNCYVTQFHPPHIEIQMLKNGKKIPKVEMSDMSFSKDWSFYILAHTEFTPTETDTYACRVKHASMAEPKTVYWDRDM
The following applies: 16 h with 1 µg/ml α-GalCer; reference set at 100%.

Assay [2] deals with T2, mCD1d (birA-tag mCD1d/β2m) (Mus musculus, UniProt P11609, L102F).
T2 construct: gene Cd1d1; soluble glycosylated CD1d/β2m heterodimer, birA tag, biotinylated; with Beta-2-microglobulin
T2 sequence (P11609 19-297 L102F): T1 sequence (P11609 19-297) with L84F
T2 sequence (P01887 21-119 partner): T1 sequence (P01887 21-119 partner)
The following applies: 16 h with 1 µg/ml α-GalCer; WT set at 100%; lower than WT but never below 65%.

In assay [3] the target is T3, mCD1d (birA-tag mCD1d/β2m) (Mus musculus, UniProt P11609, V167L).
T3 construct: gene Cd1d1; soluble glycosylated CD1d/β2m heterodimer, birA tag, biotinylated; with Beta-2-microglobulin
T3 sequence (P11609 19-297 V167L): T1 sequence (P11609 19-297) with V149L
T3 sequence (P01887 21-119 partner): T1 sequence (P01887 21-119 partner)
The following applies: 16 h with 1 µg/ml α-GalCer; WT set at 100%.

Assay [4] has as its target T4, mCD1d (birA-tag mCD1d/β2m) (Mus musculus, UniProt P11609, L168V).
T4 construct: gene Cd1d1; soluble glycosylated CD1d/β2m heterodimer, birA tag, biotinylated; with Beta-2-microglobulin
T4 sequence (P11609 19-297 L168V): T1 sequence (P11609 19-297) with L150V
T4 sequence (P01887 21-119 partner): T1 sequence (P01887 21-119 partner)
The following applies: 16 h with 1 µg/ml α-GalCer; WT set at 100%.

The target of assay [5] is T5, mCD1d (birA-tag mCD1d/β2m) (Mus musculus, UniProt P11609, M180A).
T5 construct: gene Cd1d1; soluble glycosylated CD1d/β2m heterodimer, birA tag, biotinylated; with Beta-2-microglobulin
T5 sequence (P11609 19-297 M180A): T1 sequence (P11609 19-297) with M162A
T5 sequence (P01887 21-119 partner): T1 sequence (P01887 21-119 partner)
The settings on record: 16 h with 1 µg/ml α-GalCer; WT set at 100%; printed Met162Ala and M162A, Met62Ala.

Numbering of substitutions follows the chain as printed.

Take `CCCCCCCCCCCCCCCCCCCCCCCCCC(=O)N[C@@H](CO[C@H]1O[C@H](CO)[C@H](O)[C@H](O)[C@H]1O)[C@H](O)[C@H](O)CCCCCCCCCCCCCC` [α-GalCer]: the “antigen loading efficiency, % of WT” value in assay [1] is “Relative antigen loading efficiencies by the mCD1d mutants as determined by surface plasmon resonance”; in assay [2], “Leu84Phe and Met62Ala mutants showed lower levels of antigen loading compared to wild type”; in assay [3] it was “we measured the loading efficiency of α-GalCer on each mutant by surface plasmon resonance”; in assay [4], “we measured the loading efficiency of α-GalCer on each mutant by surface plasmon resonance”; in assay [5] it was “Leu84Phe and Met62Ala mutants showed lower levels of antigen loading compared to wild type”.
